From patent publication US20240148821A1, “PHARMACEUTICAL USE OF CYCLIC PEPTIDE COMPOUND” (CHUGAI SEIYAKU KABUSHIKI KAISHA, priority 2021, published 2024)
Bridge positions count the residues as written; N and C are the ends. Square brackets hold non-standard residues; d marks the D form. Peptide text beside a SMILES is read from it. * marks the point of attachment. hPhe(3,5-F2-4-CF3) = N[C@@H](CCc1cc(F)c(C(F)(F)F)c(F)c1)C(=O)O; hPhe(3-Cl-4-CF3) = N[C@@H](CCc1ccc(C(F)(F)F)c(Cl)c1)C(=O)O; NMeGly(cPent) = CN[C@H](C(=O)O)C1CCCC1; NMeCha = CN[C@@H](CC1CCCCC1)C(=O)O; Hyp = O=C(O)[C@@H]1C[C@@H](O)CN1; NMeChg = CN[C@H](C(=O)O)C1CCCCC1; NMeD = CN[C@@H](CC(=O)O)C(=O)O; NMeL = CN[C@@H](CC(C)C)C(=O)O; Morpholide = C1CN(*)CCO1; NMeA = CN[C@@H](C)C(=O)O; Piperidide = C1CCN(*)CC1; Ac5c = NC1(C(=O)O)CCCC1; Aze = O=C(O)[C@@H]1CCN1; Sar = CNCC(=O)O

Experiments:
[1] = biological target: protein-protein interaction between Kras and SOS1 (biotin-tagged human Kras loaded with GDP, His-tagged human SOS1) (Homo sapiens (Human), UniProt P01116, G12D); assay: Protein-protein interaction inhibition between Kras and SOS1 (KrasG12D-SOS PPI) using AlphaScreen; type: biochemical; conditions: AlphaScreen; biotin-tagged human Kras loaded with GDP, His-tagged human SOS1; read-out: KRAS G12D-SOS PPI IC50;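 also: kras produced in E. coli, Ni-coupled donor beads and streptavidin acceptor beads, excitation 680 nm with emission detected at 520–620 nm via singlet oxygen transfer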
[2] = system: various cancer cell lines (Ras mutation or amplification); assay: Measurement of cell growth inhibitory activity against various cancer cell lines (CellTiter-Glo); type: cell-based, human
Description: Various cancer cell lines used were purchased from commercial suppliers. […] The cell suspension and culture medium supplemented with serum were dispensed to a plate containing the test compounds at 40 μL (384 well plate) or 200 μL (96 well plate) per well and incubated in a carbon dioxide gas incubator. […] Six days or seven days after the start of cultivation, 20 μL of CellTiter-Glo (Promega) was added to each well and fluorescence was measured.

A549 (NSCLC) = assay: In vivo antitumor activity, mouse xenograft model, A549; conditions: 10 days
Description: (§1) Tumor growth inhibition rate (TGI %)=(1−TV/CV)×100

[3] = system: Human pancreatic cancer cell line AsPC-1 (G12D mutation Kras); assay: AsPC-1 cell growth inhibition (AsPC-1 CGI); type: cell-based; conditions: read-out: AsPC-1 cell growth inhibition, 50% growth inhibitory concentration (IC50 value); 96 hours, CellTiter-Glo, values classified in ranges
Description: Test compounds were serially dilated with dimethyl sulfoxide, and 200 nL was then dispensed to a U-bottom 96-well plate using Labcyte Echo. […] The cell suspension was dispensed to a. plate containing a test compound at 100 μL per well and incubated at 37° C. in a 5% carbon dioxide gas incubator. 96 hours later, 80 μL of CellTiter-Glo (Promega) was added to each well and fluorescence was measured.

[4] = system: large bowel carcinoma cell line LS 180; assay: In vivo antitumor activity, mouse xenograft model, LS 180; conditions: LS 180 (Colon) xenograft, 7 days
Description: as §1

[5] = system: non-small cell lung cancer cell line NC1-1441 with a KRAS mutation; assay: In vivo antitumor activity, mouse xenograft model, NCI-H441; conditions: NCI-H441 (NSCLC) xenograft, 14 days
Description: as §1

human KRAS G12C (human) = human KRAS G12C (human) (UniProt P01116); assay: cell-based or functional assay
human KRAS G12D (human) = human KRAS G12D (human) (UniProt P01116); assay: cell-based or functional assay
human KRAS G12S (human) = human KRAS G12S (human) (UniProt P01116); assay: cell-based or functional assay
human KRAS G12V (human) = human KRAS G12V (human) (UniProt P01116); assay: cell-based or functional assay
[6] = biological target: human KRAS, gene copy number amplified (human) (UniProt P01116); assay: cell-based or functional assay
human NRAS G13D (human) = human NRAS G13D (human) (UniProt P01111); assay: cell-based or functional assay
[7] = A4/Fuk, Non-Hodgkin lymphoma, KRAS Amp
[8] = MIA PaCa-2, Pancreas, KRAS G12C

Row | IC50 [2, 7] [nM] | IC50 ([2]; A549, NSCLC, KRAS G12S) [nM] | IC50 ([2]; KURAMOCHI, Ovary, KRAS Amp) [nM] | IC50 ([2]; LS 180, Colon, KRAS G12D) [nM] | IC50 [2, 8] [nM] | IC50 ([2]; NCI-H441, NSCLC, KRAS G12V) [nM] | IC50 ([2]; NCI-H929, Myeloma, NRAS G13D) [nM] | IC50 ([2]; SW480, Colon, KRAS G12V) [nM] | IC50 [3] [nM] | IC50 ([2]; AGS, Stomach, KRAS G12D) [nM] | IC50 ([2]; AsPC-1, Pancreas, KRAS G12D) [nM] | IC50 ([2]; NOMO-1, AML, KRAS G13D) [nM] | Molecule | IC50 [1] [nM] | IC50 ([2]; SNU-1, Stomach, KRAS G12D) [nM] | other results
1 | 1.28 | 1.09 | 7.89 | 5.39 | 8.93 | 2.87 | 18.8 | 56.7 | ≤ 20 | 1.46 | 3.33 | 29.1 | CC[C@H](C)[C@@H]1NC(=O)[C@H](CC(C)C)N(C)C(=O)C[C@@H](C(=O)N2CCOCC2)N(C)C(=O)[C@H](C2CCCC2)N(C)C(=O)C2(CCCC2)NC(=O)[C@@H]2CCCN2C(=O)[C@H](CCc2ccc(C(F)(F)F)c(Cl)c2)NC(=O)CN(C)C(=O)[C@H](CC2CCCCC2)N(C)C(=O)[C@@H]2CCN2C(=O)[C@H](C)N(C)C1=O [Compound 926, (5S,8S,11S,15S,18S,23aS,29S,35S,37aS)-8-((S)-sec-butyl)-29-(3-chloro-4-(trifluoromethyl)phenethyl)-35-(cyclohexylmethyl)-18-cyclopentyl-11-isobutyl-5,6,12,16,19,33,36-heptamethyl-15-(morpholine-4-carbonyl)docosahydro-2H,4H-spiro[azeto[2,1-u]pyrrolo[2,1-i][1,4,7,10,13,16,19,22,25,28,31]undecaazacyclotetratriacontine-21,1′-cyclopentan]-4,7,10,13,17,20,23,28,31,34,37(14H,22H)-undecaone] ([NMeL]I[NMeA][Aze][NMeCha][Sar][hPhe(3-Cl-4-CF3)]P[Ac5c][NMeGly(cPent)][NMeD]-Morpholide; lactam N-11) | 0.99 | 2.74 | TGI (%) ([4]; 15 mg/kg once daily): 29%; TGI (%) ([4]; 30 mg/kg once daily): 75%
2 | 0.65 | 0.25 | 2.63 | 1.32 | 1.81 | 0.89 | 4.62 | 9.6 | ≤ 20 | 0.48 | 0.84 | 4.9 | CCO[C@@H]1C[C@H]2C(=O)NC3(CCCC3)C(=O)N(C)[C@@H](C3CCCC3)C(=O)N(C)[C@H](C(=O)N(C)C)CC(=O)N(C)[C@@H](CC(C)C)C(=O)N[C@@H]([C@@H](C)CC)C(=O)N(C)[C@@H](C)C(=O)N3CC[C@H]3C(=O)N(C)[C@@H](CC3CCCCC3)C(=O)N(C)CC(=O)N[C@@H](CCc3cc(F)c(C(F)(F)F)c(F)c3)C(=O)N2C1 [Compound 1201, (5S,8S,11S,1S,18S,23aS,25R,29S,35S,37aS)-8-((S)-sec-butyl)-35-(cyclohexymethyl)-18-cyclopentyl-29-(3,5-difluoro-4-(trifluoromethyl)phenethyl)-25-ethoxy-11-isobutyl-N,N,5,6,12,16,19,33,36-nonamethyl-4,7,10,13,17,20,23,28,31,34,37-undecaoxotetratriacontahydro-2H,4H-spiro[azeto[2,1-u]pyrrolo[2,1-i][1,4,7,10,13,16,19,22,25,28,31]undecaazacyclotetratriacontine-21,1′-cyclopentane]-15-carboxamide] ([NMeL]I[NMeA][Aze][NMeCha][Sar][hPhe(3,5-F2-4-CF3)][Hyp](Et)[Ac5c][NMeGly(cPent)][NMeD]-NMe2; lactam N-11 (inferred); C-terminus assumed) |  |  | IC50 ([2]; HEC-151, Endometrium, NRAS G12D): 2.3 nM; IC50 ([2]; PA-1, Ovary, NRAS G12D): 1.16 nM; TGI (%) ([5]; 3 mg/kg once daily): 68%; TGI (%) ([5]; 6 mg/kg once daily): 92%; TGI (%) ([5]; 10 mg/kg once daily): 104%

Second part, the molecule before the results:

Row | Molecule | IC50 [2, 7] [nM] | IC50 ([2]; A549, NSCLC, KRAS G12S) [nM] | IC50 ([2]; KURAMOCHI, Ovary, KRAS Amp) [nM] | IC50 ([2]; LS 180, Colon, KRAS G12D) [nM] | IC50 [2, 8] [nM] | IC50 ([2]; NCI-H441, NSCLC, KRAS G12V) [nM] | IC50 ([2]; NCI-H929, Myeloma, NRAS G13D) [nM] | IC50 ([2]; SW480, Colon, KRAS G12V) [nM] | IC50 [3] [nM] | IC50 ([2]; AGS, Stomach, KRAS G12D) [nM] | IC50 ([2]; AsPC-1, Pancreas, KRAS G12D) [nM] | IC50 ([2]; NOMO-1, AML, KRAS G13D) [nM] | IC50 [1] [nM] | IC50 ([2]; SNU-1, Stomach, KRAS G12D) [nM] | other results
3 | CC[C@H](C)[C@@H]1NC(=O)[C@H](CC(C)C)N(C)C(=O)C[C@@H](C(=O)N2CCCCC2)N(C)C(=O)[C@H](C2CCCCC2)N(C)C(=O)C2(CCCC2)NC(=O)[C@@H]2CCCN2C(=O)[C@H](CCc2ccc(C(F)(F)F)c(Cl)c2)NC(=O)CN(C)C(=O)[C@H](CC2CCCCC2)N(C)C(=O)CN(C)C(=O)CN(C)C1=O [Compound 558, (3S,9S,18S,21S,25S,28S,34S)-3-[2-[3-chloro-4-(trifluoromethyl)phenyl]ethyl]-28-cyclohexyl-9-(cyclohexylmethyl)-21-isobutyl-7,10,13,16,22,26,29-heptamethyl-18-[(1S)-1-methylpropyl]-25-(piperidine-1-carbonyl)spiro[1,4,7,10,13,16,19,22,26,29,32-undecazabicyclo[32.3.0]heptatriacontane-31,1′-cyclopentane]-2,5,8,11,14,17,20,23,27,30,33-undecone] ([NMeL]I[Sar][Sar][NMeCha][Sar][hPhe(3-Cl-4-CF3)]P[Ac5c][NMeChg][NMeD]-Piperidide; lactam N-11) | 5.83 | 7.98 | 23.4 | 22.6 | 18.7 | 31.6 | 55.7 | 17.5 |  |  |  |  | 1.8 | 29.8 | TGI (%) (A549 (NSCLC); 10 mg/kg once daily): 46%; TGI (%) (A549 (NSCLC); 15 mg/kg once daily): 57%; TGI (%) (A549 (NSCLC); 30 mg/kg once daily): 106%
4 | [NMeL]I[Sar][Sar][NMeCha][Sar][hPhe(3-Cl-4-CF3)]P[Ac5c][NMeChg]D-Piperidide (lactam N-11; not fully specified (residue 11)) [Compound 558] |  |  |  |  |  |  |  |  |  |  |  |  |  |  | IC50, cell growth inhibition (CellTiter-Glo), MIA PaCa-2 (Pancreas) (human KRAS G12C (human)): 18.7 nM; IC50, cell growth inhibition (CellTiter-Glo), LS 180 (Colon) (human KRAS G12D (human)): 22.6 nM; IC50, cell growth inhibition (CellTiter-Glo), SNU-1 (Stomach) (human KRAS G12D (human)): 29.8 nM; IC50, cell growth inhibition (CellTiter-Glo), A549 (NSCLC) (human KRAS G12S (human)): 7.98 nM; IC50, cell growth inhibition (CellTiter-Glo), NCI-H441 (NSCLC) (human KRAS G12V (human)): 31.6 nM; IC50, cell growth inhibition (CellTiter-Glo), SW480 (Colon) (human KRAS G12V (human)): 17.5 nM; IC50, cell growth inhibition (CellTiter-Glo), A4/Fuk (Non-Hodgkin lymphoma), KRAS Amp [6]: 5.83 nM; IC50, cell growth inhibition (CellTiter-Glo), KURAMOCHI (Ovary), KRAS Amp [6]: 23.4 nM; IC50, cell growth inhibition (CellTiter-Glo), NCI-H929 (Myeloma) (human NRAS G13D (human)): 55.7 nM
